The text below walks through data of US8921373B2, “Compounds having TRPV1 antagonistic activity and uses thereof” (Shionogi & Co., Ltd., priority 2010, dated 2014).

Bounds are passed on as bounds.

The subject of assay [1] is FCA-induced inflammation of the rat hind paw. Put plainly: Freund's complete adjuvant (FCA) model of inflammatory pain, reversal of hyperalgesia. The conditions noted are these: rats. The assay is classed as in vivo. Here is the method: Test Animals: Each experiment uses rats weighing between 200-260 g at the start of the experiment. The rats are group-housed and have free access to food and water at all times, except prior to oral administration of a compound of Formula I when food is removed for 16 hours before dosing. A control group acts as a comparison to rats treated with a compound of Formula I. The control group is administered the carrier for the compound of Formula I. The volume of carrier administered to the control group is the same as the volume of carrier and compound of Formula I administered to the test group.
Inflammatory Pain: To assess the actions of the compounds of Formula I on the treatment or prevention of inflammatory pain the Freund's complete adjuvant (“FCA”) model of inflammatory pain is used. […] 24 hour post injection, the animal is assessed for response to noxious mechanical stimuli by determining the PWT, or to noxious thermal stimuli by determining the PWL, as described below. […] Responses to noxious mechanical or thermal stimuli are then determined 1, 3, 5 and 24 hours post administration. […]
Response to Mechanical Stimuli as an Assessment of Mechanical Hyperalgesia: The paw pressure assay can be used to assess mechanical hyperalgesia. For this assay, hind paw withdrawal thresholds (PWT) to a noxious mechanical stimulus are determined using an analgesymeter (Model 7200, commercially available from Ugo Basile of Italy) as described in C. […] PWT is determined once for each rat at each time point and only the affected (ipsilateral) paw is tested.
Response to Thermal Stimuli as an Assessment of Thermal Hyperalgesia: The plantar test can be used to assess thermal hyperalgesia. For this test, hind paw withdrawal latencies (PWL) to a noxious thermal stimulus are determined using a plantar test apparatus (commercially available from Ugo Basile of Italy) following the technique described by K. Hargreaves et al., “A New and Sensitive Method for Measuring Thermal Nociception in Cutaneous Hyperalgesia,” Pain 32(1):77-88 (1988). […] Three latencies are determined at each time point and averaged. […]

For assay [2], the target named is human recombinant TRPV1 (Homo sapiens (Human), UniProt Q8NER1). The assay can be described thus: TRPV1 pH-Based Assay (Protocol 2, Ca2+ response in TRPV1/CHO cells, Fura-2). The assay is classed as cell-based. The conditions noted are these: TRPV1/CHO cells, pH 5.0-5.1; read-out: IC50 value by the pH-Based Assay. Put shortly: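 CHO cells stably expressing human TRPV1, Fura-2 loaded, given compound (1% DMSO in 10× stock) before acid challenge to final pH 5.0-5.1 (3.2 or 3.3 mM H2SO4). 340/380 nm ratio recorded at 0.5 Hz; maximal ratio after agonist addition versus 16-point baseline used as response.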
Chain of human recombinant TRPV1 (Q8NER1 whole entry): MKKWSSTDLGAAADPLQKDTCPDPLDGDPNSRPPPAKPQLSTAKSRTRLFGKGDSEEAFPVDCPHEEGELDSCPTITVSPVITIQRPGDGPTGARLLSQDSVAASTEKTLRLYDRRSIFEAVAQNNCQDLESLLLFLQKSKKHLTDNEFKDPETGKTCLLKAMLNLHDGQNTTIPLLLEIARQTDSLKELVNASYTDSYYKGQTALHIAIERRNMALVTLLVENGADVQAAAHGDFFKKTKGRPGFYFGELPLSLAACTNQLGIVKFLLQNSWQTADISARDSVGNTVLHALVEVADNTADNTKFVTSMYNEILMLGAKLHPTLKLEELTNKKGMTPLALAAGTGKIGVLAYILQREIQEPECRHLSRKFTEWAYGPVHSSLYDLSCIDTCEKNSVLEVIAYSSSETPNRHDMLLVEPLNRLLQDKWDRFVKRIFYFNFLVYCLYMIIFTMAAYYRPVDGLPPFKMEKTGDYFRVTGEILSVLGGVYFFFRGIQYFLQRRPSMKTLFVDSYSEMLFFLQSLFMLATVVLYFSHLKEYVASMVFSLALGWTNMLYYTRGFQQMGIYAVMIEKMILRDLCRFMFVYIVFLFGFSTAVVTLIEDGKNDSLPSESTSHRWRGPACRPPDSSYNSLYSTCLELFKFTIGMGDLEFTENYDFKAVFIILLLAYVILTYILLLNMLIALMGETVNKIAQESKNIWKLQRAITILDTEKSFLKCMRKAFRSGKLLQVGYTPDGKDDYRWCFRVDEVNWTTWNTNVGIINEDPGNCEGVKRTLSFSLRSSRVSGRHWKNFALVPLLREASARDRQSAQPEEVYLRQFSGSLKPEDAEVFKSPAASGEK

As for `Cc1cc(NC(=O)N2CCC(F)(c3ncc(C[C@H](O)CO)cc3F)CC2)ccc1C(F)(F)F` [ACQ, (S)-4-(5-(2,3-dihydroxypropyl)-3-fluoropyridin-2-yl)-4-fluoro-N-(3-methyl-4-(trifluoromethyl)phenyl)piperidine-1-carboxamide], the “Percentage reversal of hyperalgesia, % Reversal (3 mg/Kg, 3 hours post administration)” value in assay [1] is 41.7%. Moreover, the 50% inhibitory concentration (IC50) in assay [2] is no more than 50 nM.
